Where two headings read alike, the source gives them in different places. Bounds are passed on as bounds.

The test system of data set [1] is HCV replicon (5-2 Luc replicon-comprising cells). Briefly: HCV replicon assay (luciferase reporter). It is filed as cell-based, Hepatitis C virus. To be noted: first symbol of the Replicon/Western cell, 5-2 Luc replicon cells, 24 hours with compound, read-out: Replicon (IC50, 50% reduction in luciferase emission). On the procedure:
The inhibitory activity of certain exemplary compounds of the invention was confirmed using an HCV replicon assay. The HCV replicon can include such features as the HCV IRES, the HCV 3′ untranslated region, selected HCV genes encoding HCV polypeptides, selectable markers, and a reporter gene such as luciferase, GEP, etc. In the assay, actively dividing 5-2 Luc replicon-comprising cells were seeded at a density of between about 5,000 and 7,500 cells/well onto 96 well plates (about 90 μl of cells per well) and incubated at 37° C. and 5% CO2 for 24 hours. Then, the test compound (in a volume of about 10 μl) was added at various concentrations to each well and the cells were incubated for an additional 24 hours before luciferase assay. The cells were harvested, and HCV replication or translation was monitored via a reporter assay, e.g., a luciferase reporter assay. The media was aspirated from each cell and Bright-Glo ([…].) luciferase assay reagents were added to each well according to the manufacturer's instructions. In this assay, the amount of test compound that yielded a 50% reduction in luciferase emission (IC50) was determined.
In general terms: Replicon systems follow genome replication, usually without infectious particles.

Data set [2] deals with HCV proteins (HCV replication). The data set is described as follows: quantitative Western blot analysis with antibodies specific for certain HCV proteins. It is filed as cell-based, Hepatitis C virus. To be noted: second symbol of the Replicon/Western cell, read-out: Western (IC50, 50% reduction in the amount of the specified HCV protein). Here is the method: Certain exemplary compounds of the invention were also tested for their ability to inhibit HCV replication using a quantitative Western blot analysis with antibodies specific for certain HCV proteins. In this assay, the amount of test compound that yielded a 50% reduction in the amount of the specified HCV protein as compared to a control sample (IC50) was determined.
(In general: In western blotting, separated proteins are transferred to a membrane and probed.)

A short description of data set [3]: cytotoxicity assay (Cell Titer Glo). It is filed as cell-based. To be noted: human; 48 hr with compound, ATP-dependent Cell Titer Glo; read-out: IC50 (cytotoxicity, number of viable cells). Here is the method: Compounds 1, 3, 7, 9, 11, 13, 17, 19, 21, 27, 29, 31, 33, 35, 37, 39, 47, 49, 51, 57 and 69 were tested in a cytotoxicity assay with liver cells including an HCV replicon (5-2 Luc cells, 9-13 cells or Huh-7 cells). In the assay, cells were seeded onto 96-well plates (approx. 7500 cells/well in a volume of 90 μl) and grown for 24 hr at 37° C. On day 2, various concentrations of test compound (in a volume of 10 μl) were added to the wells and the cells were grown for an additional 48 hr at 37° C. On day 4, an ATP-dependent R-Luciferase assay (Cell Titer Glo assay) was performed to determine the number of viable cells.

`O=C(Nc1ccnc(-c2cc(-c3c(O)cccc3Cl)no2)c1)C(Cl)Cl` [Compound 89, 2,2-Dichloro-N-[2-[3-(2-chloro-6-hydioxyphenyl)-5-isoxazolyl]-(4-pyridyl)] Acetamide]: the IC50 (commonly the concentration that gives 50% inhibition) in data set [1] was under 10 µM.

For `CC(C)(C)[Si](C)(C)Oc1cccc(Cl)c1-c1cc(-c2cncc(NC(=O)C(Cl)Cl)c2)on1` [Compound 75, 2,2-Dichloro-N-[5-[3-(2-chloro-6-tert-butyldimethylsilyloxyphenyl)-5-isoxazolyl]-(3-pyridyl)] Acetamide], the IC50 in data set [1] is under 10 µM. The same measure, in the same setting: next, `CCNC(=O)Oc1cccc(Cl)c1-c1cc(-c2cncc(NC(=O)C(Cl)Cl)c2)on1` [Compound 79, 2,2-Dichloro-N-[5-[3-(2-chloro-6-N-ethylcarbamoyloxyphenyl)-5-isoxazolyl]-(3-pyridyl)] Acetamide]: under 10 µM. On the same count and under the same terms, the value for `O=C(Nc1ccnc(-c2cc(-c3c(F)cccc3S(=O)(=O)NN3CCOCC3)no2)c1)C(Cl)Cl` [Compound 47] was under 10 µM.

Consider `COc1cccc(F)c1-c1cc(-c2cc(NC(=O)C(Cl)Cl)ccn2)on1` [Compound 5, 2,2-Dichloro-N-[2-[3-(2-fluoro-6-methoxyphenyl)-5-isoxazolyl]-(4-pyridyl)] Acetamide], for which the IC50 in data set [2] (Hepatitis C virus) is under 10 µM; in data set [1] (Hepatitis C virus) it was over 10 µM. Regarding `O=C(Nc1ccnc(-c2cc(-c3c(N4CCOCC4)cccc3C(F)(F)F)no2)c1)C(Cl)Cl` [Compound 31, 2,2-Dichloro-N-[2-[3-(2-morpholino-6-trifluoromethylphenyl)-5-isoxazolyl]-(4-pyridyl)] Acetamide], in data set [1] (Hepatitis C virus), the concentration for half-maximal inhibition (IC50) was under 10 µM. Also, in data set [3], the IC50 at 48 h was at least 10 µM. On to `Cc1cccnc1-c1cc(-c2cccc(NC(=O)C(Cl)Cl)c2)on1` [Compound 33, 2,2-Dichloro-N-[3-[3-(3-methyl-2-pyridyl)-5-isoxazolyl]phenyl] Acetamide], for which the IC50 in data set [1] (Hepatitis C virus) is under 10 µM. Moreover, the IC50 at 48 h in data set [3] was at least 10 µM. Turning to `CC(C)(C)[Si](C)(C)Oc1cccc(Cl)c1-c1cc(-c2cc(NC(=O)C(Cl)Cl)ccn2)on1` [Compound 83, 2,2-Dichloro-N-[2-[3-(2-chloro-6-tert-butyldimethylsilyloxyphenyl)-5-isoxazolyl]-(4-pyridyl)] Acetamide], the 50% inhibitory concentration (IC50) in data set [1] is under 10 µM. In the case of `O=C(Nc1ccnc(-c2cc(-c3c(Cl)cccc3N3CCN(c4ccccn4)CC3)no2)c1)C(Cl)Cl` [Compound 53], the concentration for half-maximal inhibition (IC50) in data set [2] (Hepatitis C virus) and in data set [1] (Hepatitis C virus) was under 10 µM throughout.

As for `O=C(Nc1cccc(-c2cc(-c3cc(Cl)nc(Cl)c3)no2)c1)C(Cl)Cl` [Compound 11, 2,2-Dichloro-N-[3-[3-[(2,6-dichloro)-4-pyridyl]-5-isoxazolyl]phenyl] Acetamide], the IC50 is under 10 µM in data set [2] and over 10 µM in data set [1]. For `COCOc1cccc(Cl)c1-c1cc(-c2cc(NC(=O)C(Cl)Cl)ccn2)on1` [Compound 87], the IC50 in data set [1] was under 10 µM. On to `O=C(Nc1ccnc(-c2cc(-c3c(F)cccc3Cl)no2)c1)C(Cl)Cl` [Compound 1, 2,2-Dichloro-N-[2-[3-(2-chloro-6-fluorophenyl)-5-isoxazolyl]-(4-pyridyl)] Acetamide], for which the IC50 in data set [1] (Hepatitis C virus) was under 10 µM. Moreover, the half-inhibitory concentration (IC50) at 48 h in data set [3] was at least 10 µM.

In the case of “2,2-Dichloro-N-[5-[3-[2-chloro-6-[4-(N-tert-butoxycarbonyl)piperazino]phenyl])-5-isoxazolyl]-(3-pyridyl)] Acetamide [Compound 71]”, the IC50 in data set [1] is under 10 µM. For `CCOC(=O)c1cccnc1-c1cc(-c2cccc(NC(=O)C(Cl)Cl)c2)on1` [Compound 45, 2,2-Dichloro-N-[3-[3-[(3-ethoxycarbonyl)-2-pyridyl]-5-isoxazolyl]phenyl] Acetamide], in data set [1] (Hepatitis C virus), the IC50 is over 10 µM. As for `CCCNC(=O)Oc1cccc(Cl)c1-c1cc(-c2cc(NC(=O)C(Cl)Cl)ccn2)on1` [Compound 85], in data set [1], the IC50 was under 10 µM.

Regarding `O=C(Nc1ccncc1-c1cc(-c2cccc(Br)n2)no1)C(Cl)Cl` [Compound 97, 2,2-Dichloro-N-[3-[3-[(6-bromo)-2-pyridyl]-5-isoxazolyl]-(4-pyridyl)] Acetamide], in data set [1], the IC50 is over 10 µM. In the case of `O=C(Nc1cc[n+]([O-])c(-c2cc(-c3c(Cl)cccc3Cl)no2)c1)C(Cl)Cl` [Compound 43], the IC50 in data set [1] (Hepatitis C virus) was over 10 µM. For the compound `CN(C)c1nccc(Cl)c1-c1cc(-c2cccc(NC(=O)C(Cl)Cl)c2)on1` [Compound 91, 2,2-Dichloro-N-[3-[3-[(4-chloro-2-dimethylamino)-3-pyridyl]-5-isoxazolyl]phenyl] Acetamide], in data set [1], the IC50 was under 10 µM. On to `O=C(Nc1ccc(-c2cc(-c3c(Cl)cccc3Cl)no2)cn1)C(Cl)Cl` [Compound 65, 2,2-Dichloro-N-[5-[3-(2,6-dichlorophenyl)-5-isoxazolyl]-(2-pyridyl)] Acetamide], for which the IC50 in data set [1] is over 10 µM. `Cc1cccc(C)c1-c1cc(-c2cc(NC(=O)C(Cl)Cl)ccn2)on1` [Compound 19, 2,2-Dichloro-N-[2-[3-(2,6-dimethylphenyl)-5-isoxazolyl]-(4-pyridyl)] Acetamide]: in data set [1] (Hepatitis C virus), the IC50 was under 10 µM. The IC50 at 48 h in data set [3] was over 5 µM. Consider “2,2-Dichloro-N-[5-[3-[2-chloro-6-[4-(N-acetyl)piperazino]phenyl])-5-isoxazoly]-(3-pyridyl)] Acetamide [Compound 61]”, for which the IC50 in data set [1] is under 10 µM. With `CN(C(=O)C(Cl)Cl)c1ccnc(-c2cc(-c3c(Cl)cccc3Cl)no2)c1` [Compound 51, 2,2-Dichloro-N-[2-[3-(2,6-dichlorophenyl)-5-isoxazolyl]-(4-pyridyl)]-N-methyl Acetamide], in data set [1] (Hepatitis C virus), the IC50 is under 10 µM. The IC50 at 48 h in data set [3] was at least 10 µM. Take `O=C(Nc1cccc(-c2cc(-c3c(Cl)ccnc3Cl)no2)c1)C(Cl)Cl` [Compound 93, 2,2-Dichloro-N-[3-[3-[(2,4-dichloro)-3-pyridy]-5-isoxazolyl]phenyl] Acetamide]: the half-inhibitory concentration (IC50) in data set [1] was under 10 µM. `COc1cccc(F)c1-c1cc(-c2cc(NC(=O)C(Cl)Cl)ccn2)on1` [Compound 39]: the IC50 at 48 h in data set [3] is at least 10 µM. For `O=C(Nc1cncc(-c2cc(-c3c(O)cccc3Cl)no2)c1)C(Cl)Cl` [Compound 77, 2,2-Dichloro-N-[5-[3-(2-chloro-6-hydroxyphenyl)-5-isoxazolyl]-(3-pyridyl)] Acetamide], in data set [1], the IC50 was under 10 µM.

For the compound `O=C(Nc1cncc(-c2cc(-c3cccc(Cl)c3Cl)no2)c1)C(Cl)Cl` [Compound 29, 2,2-Dichloro-N-[5-[3-(2,3-dichloroplhenyl)-5-isoxazolyl]-(3-pyridyl)] Acetamide], the IC50 in data set [1] (Hepatitis C virus) was under 10 µM. In addition, in data set [3], the IC50 at 48 h was at least 10 µM. Turning to `O=C(Nc1cncc(-c2cc(-c3ccccc3C(F)(F)F)no2)c1)C(Cl)Cl` [Compound 67, 2,2-Dichloro-N-[5-[3-(2-trifluoromethylphenyl)-5-isoxazolyl]-(3-pyridyl)] Acetamide], the IC50 in data set [1] was over 10 µM. As to `CCN1CCN(c2cccc(Cl)c2-c2cc(-c3cncc(NC(=O)C(Cl)Cl)c3)on2)CC1` [Compound 63], the IC50 in data set [1] (Hepatitis C virus) is under 10 µM. On to `O=C(Nc1cncc(-c2cc(-c3c(F)cccc3C(F)(F)F)no2)c1)C(Cl)Cl` [Compound 37, 2,2-Dichloro-N-[5-[3-(2-fluoro-6-trifluoromethylphenyl)-5-isoxazolyl]-(3-pyridyl)] Acetamide], for which the IC50 in data set [1] (Hepatitis C virus) was over 10 µM. Moreover, the IC50 at 48 h in data set [3] was at least 10 µM. For `O=C(Nc1cccc(-c2cc(-c3c(Cl)cccc3Cl)no2)n1)C(Cl)Cl` [Compound 35, 2,2-Dichloro-N[6-[3-(2,6-dichlorophenyl)-5-isoxazolyl]-(2-pyridyl)] Acetamide], the IC50 in data set [1] (Hepatitis C virus) is over 10 µM. In data set [3], the IC50 at 48 h is at least 10 µM. Consider `O=C(Nc1cncc(-c2cc(-c3c(Cl)cccc3N3CCNCC3)no2)c1)C(Cl)Cl` [Compound 73, 2,2-Dichloro-N-[5-[.3-(2-chloro-6-piperazinophenyl)-5-isoxazolyl]-(3-pyridyl)] Acetamide], for which the IC50 in data set [1] was under 10 µM.

Turning to “2,2-Dichloro-N-[5-[3-[2-chloro-6-[4-(N-ethylcarboxamido)piperazino]phenyl])-5-isoxazolyl]-(3-pyridyl)] Acetamide [Compound 81]”, the IC50 in data set [1] was under 10 µM.

For the compound “2,2-Dichloro-N-[5-[3-[2-chloro-6-[4-(N-2-pyridyl)pipera phenyl])5-isoxazolyl]-(3-pyridyl)] Acetamide [Compound 69]”, the IC50 in data set [1] is under 10 µM.

For the origin of these results see patent US7332602B2, “Pyridyl substituted heterocycles useful for treating or preventing HCV infection” (Rigel Pharmaceuticals, Inc., priority 2002, dated 2008).
